Test: Waters ACQUITY UPLC BEH C18, 50 × 2.1 mm, 1.7 µm, 30 °C, 0.3 mL/min, estimated dead time 0.37 min; A: water + 0.3% formic acid; B: acetonitrile; gradient (min/%B) 0.5/5 3.5/20 5.5/25 7/57 8/90
Details: stereoisomer not certain

LC retention time: 1.44 min
Compound: CC(C)(C)NCC(O)c1cc(O)cc(O)c1 (stereo unspecified)
